Laboratory results from article PMC12218921, “An adaptive peptide-binding site in ubiquitin receptor hRpn13 revealed by structural studies” (Nature Communications, 2025).
No end group written: not given here.

Biological target: T1, hRpn13_ΔMTT (Homo sapiens, UniProt Q16186)
T1 construct: recombinant plasmid of hRpn13 Pru (1–150) cloned into the pRSET vector; GST (N, cleaved yes); residual Gly-Ser (^cG-^dS) left after cleavage; made in house; host or cells: Escherichia coli BL21 (DE3); pGEX-4T-1 plasmid synthesized by GenScript (Addgene 237412)
Assay: 1H-15N HSQC NMR titration / chemical shift perturbation (CSP), 0.1 mM 15N-labeled hRpn13_ΔMTT with unlabeled peptide
Format: binding
Method: The similar spectral effects by adding ENT or ENT_M1S is readily apparent by quantifying and plotting the shifting across the Pru amino acid sequence (Supplementary Fig. 10b, c).
All ^1H-^15N HSQC experiments were acquired on samples dissolved in NMR buffer (20 mM sodium phosphate, pH 6.5, 50 mM NaCl, 1 mM TCEP, 10% D2O) unless specified, in which case 2 mM DTT replaced TCEP. The samples were purified in DTT-containing buffer and then exchanged into NMR buffer by using Zeba Protein Desalting columns (Thermo Fisher Scientific). The pH was measured and adjusted to 6.5. All NMR experiments were performed at 25 °C on a Bruker Advance 600 MHz spectrometer equipped with a cryogenically cooled probe. The data were processed by NMRpipe[46] (version 11.5) and spectra visualized and analyzed with NMR-FAM-SPARKY[47] (version 3.190) by using previous chemical shift assignments[12],[23] and NMRbox[48]. The amide nitrogen and hydrogen chemical shift perturbations (CSP) were mapped for each amino acid according to Eq. 1.1 CSP=0.2ΔδN2+ΔδH2
ΔδH, change in amide proton value (in parts per million); ΔδN, change in amide nitrogen value (in parts per million).
Supplementary Figure 9: 2D NMR experiments indicate ENT binding to hRpn13 Pru. a) ^1H-^15N HSQC spectrum of 0.1 mM ^15N-labeled hRpn13 (1-150, black) or hRpn13_ΔMTT (green). Select residues are labeled with amino acids in the Pru helix, proteasome binding region, and termini in blue, purple, and orange, respectively. Arrows indicate direction of shifting. b, c) ^1H-^15N HSQC spectra of 0.1 mM of ^15N-labeled hRpn13_ΔMTT alone (black) or with ENT present at equimolar (red), 2-fold (orange), 5-fold (yellow), 10-fold (green), 15-fold (blue), or 20-fold (purple) molar excess. […] All spectra were acquired at 600 MHz and 25°C in 20 mM sodium phosphate, pH 6.5, 100 mM NaCl, 1 mM TCEP, 10% D2O. ppm, part per million.

T1 sequence (Q16186 4-150, stated change not applied): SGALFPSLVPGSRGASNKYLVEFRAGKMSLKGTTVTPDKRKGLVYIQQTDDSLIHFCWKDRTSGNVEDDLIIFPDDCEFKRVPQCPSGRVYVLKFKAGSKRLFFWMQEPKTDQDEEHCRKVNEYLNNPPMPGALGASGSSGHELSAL

Substance: GPGSMTT [ENT]
- HSQC signal shifting of hRpn13_ΔMTT (100 μM 15N-hRpn13_ΔMTT, peptide up to 20-fold molar excess, pH 6.5, 25 °C, 600 MHz): small concentration-dependent shifting of the same (T114, D117-E119, C121) and additional (W61, M109, H120, H145) hRpn13 amide signals
- strength of binding to hRpn13 Pru (by HSQC) (100 μM 15N-hRpn13_ΔMTT, varying molar ratios): weak interaction between ENT and hRpn13 Pru
- CSP A6 (20-fold molar excess peptide): 0.001342
- CSP A28 (20-fold molar excess peptide): 0.00743
- CSP A100 (20-fold molar excess peptide): 0.002049
- CSP A136 (20-fold molar excess peptide): 0.002049
- CSP A139 (20-fold molar excess peptide): 0.0004472
- CSP A149 (20-fold molar excess peptide): 0.003493
- CSP C60 (20-fold molar excess peptide): 0.003715
- CSP C80 (20-fold molar excess peptide): 0.002049
- CSP C88 (20-fold molar excess peptide): 0.002449
- CSP C121 (20-fold molar excess peptide): 0.02471
- CSP D41 (20-fold molar excess peptide): 0
- CSP D53 (20-fold molar excess peptide): 0.002049
- CSP D54 (20-fold molar excess peptide): 0.001789
- CSP D63 (20-fold molar excess peptide): 0.004494
- CSP D71 (20-fold molar excess peptide): 0.007
- CSP D72 (20-fold molar excess peptide): 0.007759
- CSP D78 (20-fold molar excess peptide): 0.005899
- CSP D79 (20-fold molar excess peptide): 0.002864
- CSP D115 (20-fold molar excess peptide): 0.009859
- CSP D117 (20-fold molar excess peptide): 0.033
- CSP E25 (20-fold molar excess peptide): 0.009859
- CSP E70 (20-fold molar excess peptide): 0.005459
- CSP E81 (20-fold molar excess peptide): 0.001342
- CSP E111 (20-fold molar excess peptide): 0.01601
- CSP E118 (20-fold molar excess peptide): 0.06429
- CSP E119 (20-fold molar excess peptide): 0.03311
- CSP E146 (20-fold molar excess peptide): 0.01203
- CSP F8 (20-fold molar excess peptide): 0.002049
- CSP F26 (20-fold molar excess peptide): 0.0264
- CSP F59 (20-fold molar excess peptide): 0.002864
- CSP F76 (20-fold molar excess peptide): 0.007603
- CSP F82 (20-fold molar excess peptide): 0.004219
- CSP F98 (20-fold molar excess peptide): 0.009391
- CSP F106 (20-fold molar excess peptide): 0.002864
- CSP F107 (20-fold molar excess peptide): 0.001789
- CSP G5 (20-fold molar excess peptide): 0
- CSP G17 (20-fold molar excess peptide): 0.002683
- CSP G29 (20-fold molar excess peptide): 0.003286
- CSP G45 (20-fold molar excess peptide): 0.006148
- CSP G67 (20-fold molar excess peptide): 0.001342
- CSP G91 (20-fold molar excess peptide): 0.002049
- CSP G101 (20-fold molar excess peptide): 0.004669
- CSP G135 (20-fold molar excess peptide): 0.002449
- CSP G138 (20-fold molar excess peptide): 0.001095
- CSP G141 (20-fold molar excess peptide): 0.002049
- CSP G144 (20-fold molar excess peptide): 0.001342
- CSP H58 (20-fold molar excess peptide): 0.007057
- CSP H120 (20-fold molar excess peptide): 0.07737
- CSP H145 (20-fold molar excess peptide): 0.06834
- CSP I49 (20-fold molar excess peptide): 0.002408
- CSP I57 (20-fold molar excess peptide): 0.004025
- CSP I75 (20-fold molar excess peptide): 0.001673
- CSP K21 (20-fold molar excess peptide): 0.0004472
- CSP K30 (20-fold molar excess peptide): 0.01021
- CSP K34 (20-fold molar excess peptide): 0.002408
- CSP K42 (20-fold molar excess peptide): 0.00502
- CSP K62 (20-fold molar excess peptide): 0.001342
- CSP K83 (20-fold molar excess peptide): 0.005367
- CSP K97 (20-fold molar excess peptide): 0.002449
- CSP K99 (20-fold molar excess peptide): 0.001095
- CSP K103 (20-fold molar excess peptide): 0.003131
- CSP K113 (20-fold molar excess peptide): 0.008729
- CSP K123 (20-fold molar excess peptide): 0.01565
- CSP L7 (20-fold molar excess peptide): 0.002408
